Measurements as given in patent US9114149B2, “[CU(thp)4]n[X]-n compounds for the treatment of a broad range of human solid tumors, including refractory tumors” (Universita Degli Studi Di Padova, priority 2011, dated 2015).

Experiments:
[1] = test system: A2780; assay: MTT cytotoxicity, A2780 (ovary); type: cell-based, human; details: MTT test, 72 hrs
Description: (§1) The in vitro antitumor activity of CP had been deeply evaluated in several human cancer cell lines by in vitro cytotoxicity assays. CP cytotoxicity has been detected in a large panel of human cell lines derived from a wide variety of solid tumors, including refractory tumors. In Table 1, the cytotoxicity parameters IC50 (that is the median growth inhibitory concentrations calculated from dose-survival curves via MTT test) are tabulated.
(§2) Cell lines representative of lung (H157, U1810, U1285, Calu-1), pancreas (MIA PaCa-2, BxPC-3, AsPC-1, Capan-1), liver (Huh-7, Hep 3B, SK-Hep-1), oesophagus (OE33, OE21), oesophagus/gastric cardia (OE19), stomach (BGC-823, AGS), colon (HCT-116, T84, COLO 205), breast (MDA-MB-231, SK-BR-3), cervix (CaSki, C-33 A) ovarian (A2780, SK-OV-3, IGROV1), prostate (LnCaP, PC-3) cancers along with melanoma (MEWO, G361, C-32), neuroblastoma (SH-SY5Y, SK-N-AS, IMR-32) and osteosarcoma (U-2 OS, MG-63) have been treated with increasing concentration of CP for 72 hrs.

[2] = test system: SK-Hep-1; assay: MTT cytotoxicity, SK-Hep-1 (liver); type: cell-based, human; details: MTT test, 72 hrs
Description: as §1, §2

[3] = test system: SK-BR-3; assay: MTT cytotoxicity, SK-BR-3 (breast); type: cell-based, human; details: MTT test, 72 hrs
Description: as §1, §2

[4] = test system: Huh-7; assay: MTT cytotoxicity, Huh-7 (liver); type: cell-based, human; details: MTT test, 72 hrs
Description: as §1, §2

[5] = test system: MEWO; assay: MTT cytotoxicity, MEWO (skin); type: cell-based, human; details: MTT test, 72 hrs
Description: as §1, §2

[6] = test system: human lung (MRC-5) fibroblasts; assay: Cytotoxicity towards human non-tumor cells, MRC-5; type: cell-based; details: MRC-5 human lung fibroblasts (non-tumor); MTT test, 72 hrs
[7] = test system: COLO 205; assay: MTT cytotoxicity, COLO 205 (colon); type: cell-based, human; details: MTT test, 72 hrs
Description: as §1, §2

[8] = test system: PC-3; assay: MTT cytotoxicity, PC-3 (prostate); type: cell-based, human; details: MTT test, 72 hrs
Description: as §1, §2

[9] = test system: Calu-1; assay: MTT cytotoxicity, Calu-1 (lung); type: cell-based, human; details: MTT test, 72 hrs
Description: as §1, §2

[10] = test system: BxPC-3; assay: MTT cytotoxicity, BxPC-3 (pancreas); type: cell-based, human; details: MTT test, 72 hrs
Description: as §1, §2

[11] = test system: human colon adenocarcinoma cells resistant (HCT-116 OXP) to OXP
[12] = test system: IGROV1; assay: MTT cytotoxicity, IGROV1 (ovary); type: cell-based, human; details: MTT test, 72 hrs
Description: as §1, §2

[13] = test system: SK-OV-3; assay: MTT cytotoxicity, SK-OV-3 (ovary); type: cell-based, human; details: MTT test, 72 hrs
Description: as §1, §2

[14] = test system: human foreskin (HFFF2) fibroblasts; assay: Cytotoxicity towards human non-tumor cells, HFFF2; type: cell-based; details: MTT test, 72 hrs
[15] = test system: C-32; assay: MTT cytotoxicity, C-32 (skin); type: cell-based, human; details: MTT test, 72 hrs
Description: as §1, §2

[16] = test system: U-2 OS; assay: MTT cytotoxicity, U-2 OS (bone); type: cell-based, human; details: MTT test, 72 hrs
Description: as §1, §2

[17] = test system: AGS; assay: MTT cytotoxicity, AGS (stomach); type: cell-based, human; details: MTT test, 72 hrs
Description: as §1, §2

[18] = test system: MDA-MB-231; assay: MTT cytotoxicity, MDA-MB-231 (breast); type: cell-based, human; details: MTT test, 72 hrs
Description: as §1, §2

[19] = test system: HCT-116; assay: MTT cytotoxicity, HCT-116 (colon); type: cell-based, human; details: MTT test, 72 hrs
Description: as §1, §2

[20] = test system: G361; assay: MTT cytotoxicity, G361 (skin); type: cell-based, human; details: MTT test, 72 hrs
Description: as §1, §2

[21] = test system: MIA PaCa-2; assay: MTT cytotoxicity, MIA PaCa-2 (pancreas); type: cell-based, human; details: MTT test, 72 hrs
Description: as §1, §2

[22] = test system: OE19; assay: MTT cytotoxicity, OE19 (oesophagus/gastric cardia); type: cell-based, human; details: MTT test, 72 hrs
Description: as §1, §2

[23] = test system: H157; assay: MTT cytotoxicity, H157 (lung); type: cell-based, human; details: MTT test, 72 hrs
Description: as §1, §2

[24] = test system: Hep 3B; assay: MTT cytotoxicity, Hep 3B (liver); type: cell-based, human; details: MTT test, 72 hrs
Description: as §1, §2

[25] = test system: CaSki; assay: MTT cytotoxicity, CaSki (cervix); type: cell-based, human; details: MTT test, 72 hrs
Description: as §1, §2

[26] = test system: AsPC-1; assay: MTT cytotoxicity, AsPC-1 (pancreas); type: cell-based, human; details: MTT test, 72 hrs
Description: as §1, §2

[27] = test system: human colon adenocarcinoma cells sensitive (HCT-116); assay: Cross resistance MTT test, HCT-116 (OXP sensitive); type: cell-based; details: 72 h, probit analysis
[28] = test system: T84; assay: MTT cytotoxicity, T84 (colon); type: cell-based, human; details: MTT test, 72 hrs
Description: as §1, §2

[29] = test system: Capan-1; assay: MTT cytotoxicity, Capan-1 (pancreas); type: cell-based, human; details: MTT test, 72 hrs
Description: as §1, §2

[30] = test system: CDDP sensitive and resistant human cancer cell lines; details: also CDDP resistant cell lines; cited from earlier work

O=C1[O][Pt]2([NH][C@@H]3CCCC[C@H]3[NH]2)[O]C1=O [OXP, oxaliplatin]
IC50 [1]: 0.55 ± 0.22 µM
IC50 [2]: 17.8 ± 2.63 µM
IC50 [3]: 8.98 ± 2.64 µM
IC50 [4]: 1.12 ± 1.05 µM
IC50 [5]: 6.43 ± 1.54 µM
IC50 [6]: 23.1 ± 1.25 µM
IC50 [7]: 21.1 ± 2.66 µM
IC50 [8]: 5.23 ± 1.62 µM
IC50 [9]: 4.23 ± 1.53 µM
IC50 [10]: 4.15 ± 1.06 µM
IC50 ([11]; HCT-116 OXP (OXP resistant), MTT test, 72 h, probit analysis): 23.3 ± 1 µM
R.F. (Resistant factor) ([11]; IC50 resistant/parent line: HCT-116 OXP / HCT-116): 19.4
IC50 [12]: 2.56 ± 2.14 µM
IC50 [13]: 1.43 ± 1.03 µM
IC50 [14]: 25.5 ± 1.65 µM
IC50 [15]: 1.12 ± 0.42 µM
IC50 [16]: 0.72 ± 0.24 µM
IC50 [17]: 5.32 ± 1.63 µM
IC50 [18]: 4.35 ± 1.07 µM
IC50 [19]: 0.76 ± 0.58 µM
IC50 [20]: 1.14 ± 0.31 µM
IC50 [21]: 16.8 ± 1.89 µM
IC50 [22]: 8.76 ± 1.51 µM
IC50 [23]: 25.3 ± 0.52 µM
IC50 [24]: 4.32 ± 1.33 µM
IC50 [25]: 26.1 ± 3.01 µM
IC50 [26]: 23.2 ± 2.64 µM
IC50 [27]: 1.2 ± 0.1 µM
IC50 [28]: 0.33 ± 0.09 µM
IC50 [29]: 3.17 ± 0.97 µM

Cc1cc(C)n(C(C(=O)[O][Cu]([PH](CO)(CO)CO)[PH](CO)(CO)CO)n2nc(C)cc2C)n1 [[HC(CO2)(pz^Me2)2]Cu[P(CH2OH)3]2]
antitumor activity in vitro [30]: significant antitumor activity in vitro
